# Data: doi:10.1101/2020.07.29.226878v1 (bioRxiv, 2020)
# What was measured:
# Acheta domesticus = settings: tested in Acheta domesticus; cited from earlier work
# [1] = tested on: sheep blowflies (Lucilia cuprina); assay: In vivo insecticidal assay, intrathoracic injection into sheep blowflies
Substance,LD50 at 24 h (Acheta domesticus) [nmol/g],LD50 in blow fly assays (abstract) [1] [nM]
ponericin G1,25.7,
Δ-pseudomyrmecitoxin-Pp1a [Δ-PSDTX-Pp1a],,3
